From patent publication US10808008B2, “Aromatic-cationic peptides and uses of same” (Cornell University, priority 2012, dated 2020)
“Also recorded” adds a separate entry of the source.

Assays:
[1] = Fluorescence spectroscopy of labelled peptides with cardiolipin; format: binding
Excerpt: The peptides 2′,6′-Dmt-D-Arg-[…] (SS-19) and 2′,6′-Dmt-D-Arg-Phe-Lys-Ald-NH2 (SS-37) cationic peptides carry net positive charge at neutral pH. They are expected to associate with anionic phospholipid cardiolipin based on electrostatic interaction. The interaction of small peptides with lipid membranes can been studied using fluorescence spectroscopy (Surewicz and Epand, 1984). […] Polarity-sensitive fluorescent probes were incorporated into the peptides and fluorescence spectroscopy was used to determine if SS-19, SS-37 and SS-36 interact with CL.
The peptide 2′,6′-Dmt-D-Arg-Phe-(atn)Dap-NH2 (SS-19) contains anthraniloyl incorporated into diaminopropionic acid. Anthraniloyl derivatives fluoresce in the 410-420 nm range when excited at 320-330 nm (Hiratsuka T, 1983). The quantum yield of anthraniloyl derivatives is strongly dependent on the local environment, and can increase 5-fold going from water to 80% ethanol, together with a blue shift in the emission maxima (λ max) of <10 nm (Hiratsuka T, 1983). Fluorescence emission spectrum of SS-19 (1 μM) alone, and in the presence of increasing concentrations of CL (5 to 50 μg/ml), was monitored following excitation at 320 nm using Hitachi F-4500 fluorescence spectrophotometer.
The peptide 2′,6′-Dmt-D-Arg-Phe-Lys-Ald-NH2 (SS-37) contains an additional amino acid, aladan (Ald), which has been reported to be particularly sensitive to the polarity of its environment and it has been used to probe the electrostatic character of proteins (Cohen et al., 2002). When excited at 350 nm, λmax shifts from 542 nm in water to 409 nm in heptane, accompanied by a significant increase in quantal yield (Cohen et al., 2001). Fluorescence emission spectrum of SS-37 (1 μM) alone, and in the presence of increasing concentrations of CL, was monitored following excitation at 350 nm. Addition of CL (5 to 50 μg/ml) led to a 3-fold increase in quantal yield of SS-37 as well as a clear blue shift in λ max, from 525 nm without CL to 500 nm with 50 μg/ml CL (FIG. 11B).
The peptide 2′,6′-Dmt-D-Arg-Ald-Lys-NH2 (SS-36) contains Ald in place Phe^3 in SS-02. Fluorescence emission spectrum of SS-36 (1 μM) alone, and in the presence of increasing concentrations of CL, was monitored following excitation at 350 nm. SS-36 was the most sensitive to the addition of CL, with dramatic increase in quantal yield and blue shift observed with much lower added amounts of CL (1.25 to 5 μg/ml). The λmax shifted from 525 nm without CL to 500 nm with as little as 1.25 μg/ml CL, and quantal yield increased by more than 100-fold with the addition of 5 μg/ml of CL (FIG. 11C). […] Accordingly, aromatic-cationic peptides of the present disclosure are useful for the prevention or treatment of diseases or disorders characterized by dysregulation of cardiolipin.
Changes in the emission intensity of the [atn]SS-02 and the [ald]SS-02 were measured using a Hitachi F-4500 fluorescence spectrophotometer. The different solvents used to dissolve the various phospholipids (chloroform, methanol and ethanol) had negligible effect on the fluorescence spectrum of [atn]SS-02 and [ald]SS-02. All experiments were done in low ionic solution (deionized water) to optimize electrostatic interactions of peptides with phospholipids.
Increasing concentrations of cardiolipin (5, 10, 25, and 50 μg/mL) were added to 1 μM [atn]SS-02, and the emission intensity between 350 nm and 500 nm was measured.

[2] = molecular target: T1, cytochrome c and cardiolipin (CL) (Equus caballus, UniProt P00004); experiment: Fluorescence quenching by cytochrome c in the presence of cardiolipin; format: binding, horse
T1 construct: from tissue; host or cells: horse heart
T1 sequence (P00004 2-105 limits assumed): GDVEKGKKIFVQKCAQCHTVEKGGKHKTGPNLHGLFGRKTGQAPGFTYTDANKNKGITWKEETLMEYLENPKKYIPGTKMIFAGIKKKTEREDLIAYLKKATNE
Protocol: Fluorescence emission of SS-19 (10 μM) was monitored in real time (Ex/Em=320 nm/420 nm) using Hitachi F-4500 fluorescence spectrophotometer. […] CL may potentiate the interaction between SS-19 and cytochrome c by serving as an anionic platform for the two cationic molecules.
The quenching by cytochrome c was not displaced by sequential additions of bovine serum albumin (500 μg/ml) (FIG. 13C, A+arrows).
SS-36 also contains the polarity-sensitive fluorescent amino acid aladan. […] Accordingly, aromatic-cationic peptides of the present disclosure are useful for the prevention or treatment of diseases or disorders characterized by dysregulation of cardiolipin and/or cytochrome c, and/or diseases or disorders characterized by dysregulation of the cardiolipin/cytochrome c interaction.
(§1) Interaction of SS peptides with horse heart cytochrome c in the absence or presence of free cardiolipin or cardiolipin/POPC (1:1) liposomes (prepared as described in Example 22) was examined by fluorescence quenching of [atn]SS-02 (λex/λem=320/420 nm) and [ald]SS-02 (λex/λem=360/510 nm) upon addition of cytochrome c (using a Hitachi F-4500 fluorescence spectrophotometer). The solvents used to dissolve cardiolipin and POPC had negligible effect on cytochrome c-dependent quenching of these peptides. All experiments were done in low ionic solution (deionized water) or 20 mM Hepes pH 7.4.

cytochrome c = cytochrome c (Equus caballus, UniProt P00004); experiment: Fluorescence quenching of labelled peptides by cytochrome c; format: binding, horse; parameters: from tissue; host or cells: horse heart; details: for change in λmax on quenching by cytochrome c / quenching of fluorescence by cytochrome c: Example 22; for quenching of fluorescence by cytochrome c: additions of cytochrome c (2 μM)
Sequence of cytochrome c (P00004 2-105 limits assumed): as above
Protocol: Maximal fluorescence emission of SS-19 was monitored at 420 nm following excitation at 320 nm using Hitachi F-4500 fluorescence spectrophotometer.
The quenching by cytochrome c was not displaced by sequential additions of bovine serum albumin (FIG. 12C, A+arrows) (500 μg/ml). […] Accordingly, aromatic-cationic peptides of the present disclosure are useful for the prevention or treatment of diseases or disorders characterized by dysregulation of cytochrome c.
Fluorescence emission of SS-19 (10 μM) was monitored in real time (Ex/Em=320 nm/420 nm) using Hitachi F-4500 fluorescence spectrophotometer.
as §1

[3] = molecular target: T2, horse radish peroxidase (HRP) (Armoracia rusticana, UniProt P00433); experiment: Horseradish peroxidase activity (Amplex Red); format: biochemical; details: data not shown
T2 sequence (P00433 31-338 limits assumed): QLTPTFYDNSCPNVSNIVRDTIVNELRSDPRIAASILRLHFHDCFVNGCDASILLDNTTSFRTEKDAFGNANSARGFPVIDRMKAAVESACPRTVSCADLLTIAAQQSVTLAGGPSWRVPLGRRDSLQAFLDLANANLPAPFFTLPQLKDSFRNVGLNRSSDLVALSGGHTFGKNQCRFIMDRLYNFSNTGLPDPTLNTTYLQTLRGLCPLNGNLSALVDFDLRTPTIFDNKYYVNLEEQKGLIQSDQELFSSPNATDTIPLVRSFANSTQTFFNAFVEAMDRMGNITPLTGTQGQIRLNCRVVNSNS

Row | Substance | increase in quantal yield on addition of CL ([1]; 1 μM peptide, 5 μg/ml CL, excitation 350 nm) | affinity compared among POPS, POPA, DPPG and cardiolipin ([1]; 1 μM peptide, 10 μg/mL phospholipid) | peptide fluorescence on addition of CL ([1]; CL 2.5 μg/ml) | emission maximum with cardiolipin after addition of cytochrome c [2] | emission maximum with cardiolipin before addition of cytochrome c [2] | quenching of fluorescence by cytochrome c in the presence of CL ([2]; CL 2.5 μg/ml, cytochrome c 2 μM) | change in λmax on quenching by cytochrome c (cytochrome c) | quenching of fluorescence by cytochrome c (cytochrome c) | shift in λmax on addition of CL ([1]; 1 μM peptide, CL 5-50 μg/ml, excitation 320 nm) | increase in quantal yield on addition of CL ([1]; 1 μM peptide, CL 5 to 50 μg/ml) | emission intensity on addition of cardiolipin ([1]; 1 μM peptide, deionized water (Example 21)) | peptide fluorescence on addition of CL ([1]; 10 μM peptide, CL 50 μg/ml, Ex/Em 320/420 nm) | quenching of the fluorescent signal ([2]; 2 μM cytochrome c, 1 μM peptide, 10 μg/mL cardiolipin, 420 nm) | extent of quenching by cytochrome c with CL compared to without CL ([2]; 10 μM peptide, CL 50 μg/ml, cytochrome c 2 μM) | effect of cardiolipin on interaction between cytochrome c and peptide ([2]; free cardiolipin or cardiolipin liposomes) | dependence of interaction on amount of cytochrome c (cytochrome c) | quenching of the fluorescent signal (cytochrome c; 2 μM cytochrome c, 1 μM peptide, absence of cardiolipin, 420 nm) | quenching of peptide fluorescence by cytochrome c (cytochrome c; 10 μM peptide, 2 μM cytochrome c, Ex/Em 320/420 nm) | displacement of cytochrome c quenching by bovine serum albumin (cytochrome c; BSA 500 μg/ml) | HRP activity [3]
1 | 2′,6′-Dmt-D-Arg-Ald-Lys-NH2 [SS-36] | more than 100 fold | Cardiolipin shows the highest affinity | increase in SS-36 fluorescence | 450 nm | 510 nm | dramatic quenching | no change in λmax | concentration-dependent quenching |  |  |  |  |  |  |  |  |  |  |  | 
2 | 2′,6′-Dmt-D-Arg-Phe-(atn)Dap-NH2 [SS-19] |  |  |  |  |  |  | no change in λmax | concentration-dependent quenching | no significant shift in λmax | 2 fold | increased the emission intensity of [atn]SS-02 in a concentration-dependent manner | increase in SS-19 fluorescence | ~50% | larger extent of quenching | potentiated by either free cardiolipin or cardiolipin liposomes in a dose-dependent manner | linearly dependent on the amount of cytochrome c added | ~20% | similarly quenched by sequential addition of 2 μM cytochrome c; also recorded: immediate quenching of the fluorescence signal | not displaced | 
3 | D-Arg-2′,6′-Dmt-Lys-Phe-NH2 [SS-31] |  |  |  |  |  |  |  |  |  |  |  |  |  |  |  |  |  |  |  | no effect
